We go through two molecules from patent publication US11229602B2, “Formulations for treating bladder cancer” (priority 2016, dated 2022).

Each structure is given as a SMILES string. Values joined by “and” are separate entries in the source; they are usually repeats but may differ in a detail not shown here. Equal entries are not always repeated. Where two headings read alike, the source gives them in different places. Some results are limits rather than exact numbers.

For series [1], the system named is human bladder epithelial carcinoma cell-line T24 (ATCC HTB-4). The series can be described thus: Sulforhodamine B (SRB) assay, T24 cells. The class given is cell-based. Conditions: 72 h treatment. On the procedure: (§1) A sulforhodamine B (SRB) assay-based approach was employed to determine the inhibitory concentration (IC)50 of paclitaxel formulations PLIP-003, PLIP-006, PLIP-021, and PLIP-023 against the human bladder epithelial carcinoma cell-lines T24 (ATCC® HTB-4™), 5637 (ATCC® HTB-9™) and HT-1376 (ATCC® CRL-1472™). For use in the assays, the paclitaxel formulations were redispersed in normal saline to a concentration of 2-5 mg/mL paclitaxel. The dispersed formulations formed clear solutions. Pure, unformulated, paclitaxel solution ([6 mg/100 μL] in DMSO) was used as a control formulation.
(§2) Cells were seeded onto 96-well plates at a density of 5×10^3 cells/well and cultured for 24 h at 37° C. and 5% CO2. The dispersed paclitaxel formulations and pure drug controls were added to the media of the plated cell cultures. […] Protein-bound SRB was detected by adding 100 μl 10 mM Tris base solution to each well, and allowing 5 to 10 minutes for Tris solution to solubilize SRB. The plates were read using a microplate reader at an absorbance of 565 nm. […]
(§3) Cells were seeded onto 96-well plates at a density of 5×10^3 cells/well and cultured for 24 h at 37° C. and 5% CO2. […] Protein-bound SRB was detected by adding 100 μl 10 mM Tris base solution to each well, and allowing 5 to 10 minutes for Tris solution to solubilize SRB. The plates were read using a microplate reader at an absorbance of 565 nm.

Series [2] relates to KU-7-GFP human bladder cancer. In words: KU-7-GFP human bladder cancer orthotopic mouse model, intravesical instillation. The class given is in vivo, mice. As for the experimental part: An orthotopic mouse model was utilized to evaluate a proliposomal formulation of paclitaxel. The bladder cancer cell line KU7/GFP clone 6 was used for these studies. The KU7/GFP clone 6 is stably transfected with the green-fluorescent protein, and these cell lines were used for all in vivo studies. The KU7/GFP clone 6 cell lines are described in Watanabe et al. The cells were grown in modified minimum essential medium supplemented with 10% FCS and incubated at 37° C. in 5% CO2. Tumors generated from KU7/GFP cells were generated […]. The tumors were implanted into the bladder of female mice. […] The foregoing formulations and saline were administered at day 0, day 7, and day 14 post-tumor implantation.
KU-7-GFP human bladder cancer orthotopic MetaMouse® model: The human bladder cancer cell line KU-7 expressing GFP was from the AntiCancer Inc. cell-line bank. The animals were transplanted by intravesical instillation using the KU-7-GFP bladder cancer cells. The animals were anesthetized with a mixture of ketamine, acepromazine and xylazine. The surgical area was sterilized using iodine and alcohol. After proper exposure of the bladder following a lower midline abdominal incision, the bladder was catheterized with a 24-G angiocatheter, drained and injured by a scratch with a needle in the bladder lining. KU-7-GFP (100 μl 2×10^6) cells were instilled into the bladder and a purse string was placed to occlude the urethra in order for the cells to be retained for 1 hour. The bladder was then returned to the abdominal cavity. The incision in the abdominal wall was closed with a 6-0 surgical suture in one layer. The animals were kept under isoflurane anesthesia during surgery. All procedures of the operation described above were performed under a 7× magnification microscope (Olympus). Animals were kept in a barrier facility under HEPA filtration.
On day 7 after tumor cell implantation, fifty animals were randomly divided into five groups (each treatment group contained n=10 mice) on day 7 after tumor implantation. Treatments in all groups for all mice were initiated on the same day, which was considered Study Day 0. Freshly reconstituted formulation (50 μL) was instilled intravesically using a 24 G/¾″ IV catheter, and the urethra was occluded using a purse string knot. The formulation was held in the bladder for a period of 1 h. After 1 h, the purse string was cut open, and the bladder was allowed to void naturally. The same procedure was followed on days 0, 7, 14 […].
In vitro human bladder cancer cell lines (T24, KU7) were used to assess IC50 values. In vivo studies were carried out in nude mice inoculated with KU7-GFP cell-lines. After KU7 bladder tumor inoculation, weekly (×3) intravesical instillations (3 groups: PLIP; PTX/DMSO or PTX/Nab; or saline) were delivered and tumor growth measured. Pharmacokinetic studies were carried out in rat species. A GLP compliant acute-expanded toxicology/toxicokinetics study in rat species was also performed.

For series [3], the system named is human bladder epithelial carcinoma cell-line 5637 (ATCC HTB-9). In words: Sulforhodamine B (SRB) assay, 5637 cells. The class given is cell-based. As to conditions: 72 h treatment. As for the experimental part: as §1, §2, §3
Series [4] is described as follows: Redispersion / dissolution in normal saline. The format is physicochemical. On the procedure:
as §1
A sulforhodamine B (SRB) assay-based approach was employed to determine the inhibitory concentration IC50 of cisplatin formulations PLIC-002 and PLIC-009 against the human bladder carcinoma epithelial cell-lines T24 (ATCC® HTB-4™), 5637 (ATCC® HTB-9™) and HT-1376 (ATCC® CRL-1472™). For use in the assays, the cisplatin formulations were redispersed in normal saline to a concentration 2 mg/mL cisplatin. The redispersed formulations formed clear solutions. Pure cisplatin solution 1 mg/mL in normal saline (unformulated) was used as a control. Higher concentrations of pure cisplatin were not used because cisplatin will not form a clear solution above 1 mg/mL in normal saline.

The subject of series [5] is human bladder epithelial carcinoma cell-line HT-1376 (ATCC CRL-1472). The series can be described thus: Sulforhodamine B (SRB) assay, HT-1376 cells. The class given is cell-based. As to conditions: HT1376; cisplatin formulations; 72 h treatment. As for the experimental part: as §1, §2, §3
A general note: Sulforhodamine B stains cellular protein and so reports cell mass.

The mark [6] stands for this setting: 5.0 mg/kg, nude mice KU7-GFP, weekly intravesical instillations.
Where [7] appears, read: 5.0 mg/kg, nude mice KU7-GFP, weekly intravesical instillations, * p < 0.05 vs saline.

`CC(=O)O[C@H]1C(=O)[C@@]2(C)[C@H]([C@H](OC(=O)c3ccccc3)[C@]3(O)C[C@H](OC(=O)[C@H](O)[C@@H](NC(=O)c4ccccc4)c4ccccc4)C(C)=C1C3(C)C)[C@]1(OC(C)=O)CO[C@@H]1C[C@@H]2O` [Paclitaxel in DMSO, Paclitaxel]: in series [1] (Homo sapiens, T-24, paclitaxel formulations, read-out: IC50), the 50% inhibitory concentration (IC50) (as a rule, the concentration at which inhibition is half-maximal) was below 0.1 µg/mL. For the same molecule, in series [2] (setting [6]), the “Bladder Size” value amounted to 13 mm^2 and the “Tumor Size” value was 0.05 mm^2. For the same molecule, in series [2] (setting [7]), the “% Bladder Overtaken by Tumor” value turned out to be 10%* and the “% Complete Response” value is listed as 25% (1/4). The “Final tumor area, measured by fluorescent method” value in series [2] (Groups 3 and 4, title says Study Design 2, two weeks, five groups as in Study Design 1 (5 mg/kg once a week), individual mice, listed as PTX in DMSO, 5 mg/kg) was 16.39 mm^2 and 5.37 mm^2 and 15.96 mm^2. Further, the “Final tumor area, measured by fluorescent method, mean” value in series [2] (Groups 3 and 4, title says Study Design 2, two weeks, five groups as in Study Design 1 (5 mg/kg once a week), mean) came to 12.58 mm^2. In series [3] (Homo sapiens, paclitaxel formulations, read-out: IC50), the IC50 is below 0.1 µg/mL.

On to `N.N.[Cl][Pt][Cl]` [Pure drug, Cis-diamminedichloroplatinum(II)], for which the “highest concentration forming a clear solution in normal saline” value in series [4] was at most 1 mg/mL. In addition, the figures for the IC50 in series [1] (cisplatin formulations), in series [3] (cisplatin formulations) and in series [5] were 0.788 µg/mL, 0.441 µg/mL and 1.11 µg/mL, respectively.
